Laboratory results: ChEMBL document CHEMBL4706747, “Discovery of 5-Nitro-6-thiocyanatopyrimidines as Inhibitors of Cryptococcus neoformans and Cryptococcus gattii” (ACS Med Chem Lett, 2021)
Values after ≈ are worked out from the molar mass of the structure shown. Values joined by “and” are separate entries in the source; they are usually repeats but may differ in a detail not shown here. Identical values can stand only once.

Experiments:
Cryptococcus neoformans [1] = experiment: Antifungal activity against Cryptococcus neoformans assessed as fungal growth inhibition after 72 hrs by broth microdilution method; assay type: functional
Cryptococcus neoformans [2] = experiment: Antifungal activity against Cryptococcus neoformans KN99alpha assessed as fungal growth inhibition after 48 hrs by limiting dilution method; assay type: functional
Cryptococcus neoformans [3] = experiment: Antifungal activity against fluconazole-resistant Cryptococcus neoformans DUMC-158.03 assessed as fungal growth inhibition after 48 hrs by limiting dilution method; assay type: functional
[4] = Cytotoxicity against human HepDE19 cells incubated for 72 hrs by MTS assay; assay type: cell-based
[5] = Antifungal activity against Cryptococcus gattii RSA-3615 assessed as fungal growth inhibition after 48 hrs by limiting dilution method; assay type: functional, Cryptococcus gattii VGI

Row | Structure (SMILES) | MIC50 (Cryptococcus neoformans [1]) | MIC (Cryptococcus neoformans [1]; read-out: MIC100) | MIC80 (Cryptococcus neoformans [2]) | MIC80 (Cryptococcus neoformans [3]) | CC50 at 72 h [4] | MIC80 [5]
1 | O[C@@](Cn1cnnn1)(c1ccc(F)cc1F)C(F)(F)c1ccc(-c2ccc(OC(F)(F)F)cc2)cn1 | 0.015 µg/mL (≈ 0.0292 µM) | 0.06 µg/mL (≈ 0.117 µM) |  |  |  | 
2 | CC(C)C(C)Nc1ncnc(SC#N)c1[N+](=O)[O-] (configuration not stated) |  |  | 3 µM and 0.8 µg/mL |  |  | 
3 | N#CSc1ncnc(NCc2ccccc2)c1[N+](=O)[O-] |  |  | 2.34 µM and 0.66 µg/mL | 1.17 µM and 0.33 µg/mL | 19.6 µM and 5.63 µg/mL | 1.17 µM and 0.33 µg/mL
4 | N#CSc1ncnc(N2CCCCC2)c1[N+](=O)[O-] |  |  | 2.34 µM and 0.61 µg/mL | 4.68 µM and 1.24 µg/mL | 11.9 µM and 3.16 µg/mL | 1.17 µM and 0.3 µg/mL
5 | CC(C)Nc1nc(-c2ccccc2)nc(SC#N)c1[N+](=O)[O-] |  |  | 50 µM and 15.8 µg/mL |  |  | 
6 | CSc1nc(NCCc2ccccc2)c([N+](=O)[O-])c(SC#N)n1 |  |  | 9.37 µM and 3.25 µg/mL |  | 15.4 µM and 5.35 µg/mL | 1.17 µM and 0.4 µg/mL
7 | Cc1nc(NC2CCCC2)c([N+](=O)[O-])c(SC#N)n1 |  |  | 9 µM and 2.51 µg/mL |  |  | 2.34 µM and 0.65 µg/mL
8 | Cc1nc(NCCc2ccccc2)c([N+](=O)[O-])c(SC#N)n1 |  |  | 50 µM and 15.8 µg/mL |  | 12.3 µM and 3.87 µg/mL | 2.34 µM and 0.73 µg/mL
9 | COc1ncnc(SC#N)c1[N+](=O)[O-] |  |  | 9.37 µM and 1.98 µg/mL |  |  | > 25 µM and > 5.3 µg/mL
10 | CC(C)Nc1ncnc(SC#N)c1[N+](=O)[O-] |  |  | 2.34 µM and 0.55 µg/mL | 2.34 µM and 0.55 µg/mL | 12 µM and 2.87 µg/mL | 0.58 µM and 0.13 µg/mL
11 | CNc1nc(/C=C/c2ccccc2)nc(SC#N)c1[N+](=O)[O-] |  |  | > 50 µM and > 15.7 µg/mL |  |  | > 25 µM and > 7.83 µg/mL
12 | N#CSc1ncnc(N2CCCCCCC2)c1[N+](=O)[O-] |  |  | 4.68 µM and 1.37 µg/mL |  |  | 2.34 µM and 0.68 µg/mL
13 | Cc1nc(NC2CCCCC2)c([N+](=O)[O-])c(SC#N)n1 |  |  | > 50 µM and > 24.6 µg/mL |  |  | > 25 µM and > 12.3 µg/mL
14 | Cc1nc(SC#N)c([N+](=O)[O-])c(N2CCCCCC2)n1 |  |  | 18.8 µM and 5.49 µg/mL |  |  | 4.68 µM and 1.37 µg/mL
15 | Cc1nc(SC#N)c([N+](=O)[O-])c(N2CCCC2)n1 |  |  | 4.68 µM and 1.23 µg/mL |  |  | 1.17 µM and 0.3 µg/mL
16 | CC1CCCC(C)N1c1ncnc(SC#N)c1[N+](=O)[O-] (configuration not stated) |  |  | 9.37 µM and 2.74 µg/mL |  |  | 15.6 µM and 4.58 µg/mL
17 | Cc1nc(OC(C)C)c([N+](=O)[O-])c(SC#N)n1 |  |  | 1 µM and 0.25 µg/mL | 1.17 µM and 0.29 µg/mL | 14.6 µM and 3.71 µg/mL | 1.17 µM and 0.29 µg/mL
18 | N#CSc1ncnc(N)c1[N+](=O)[O-] |  |  | 4.68 µM and 0.92 µg/mL |  |  | 1.17 µM and 0.22 µg/mL
19 | Cc1nc(SC#N)c([N+](=O)[O-])c(N2CCCCCCC2)n1 |  |  | 18.8 µM and 5.76 µg/mL |  |  | 2.34 µM and 0.71 µg/mL
20 | CN(C)c1ncnc(SC#N)c1[N+](=O)[O-] |  |  | 4.68 µM and 1.05 µg/mL |  |  | 1.17 µM and 0.26 µg/mL
21 | CCN(c1ncnc(SC#N)c1[N+](=O)[O-])C(C)C |  |  | 4.55 µM and 1.4 µg/mL |  | 10.7 µM and 2.86 µg/mL | 1.17 µM and 0.3 µg/mL
22 | Cc1nc(SC#N)c([N+](=O)[O-])c(N2CCCCC2C)n1 (configuration not stated) |  |  | 18.8 µM and 5.49 µg/mL |  |  | 0.58 µM and 0.16 µg/mL
23 | CSc1nc(NCc2ccc(C)cc2)c([N+](=O)[O-])c(SC#N)n1 |  |  | 9.37 µM and 3.25 µg/mL |  | 19.2 µM and 6.67 µg/mL | 4.68 µM and 1.62 µg/mL
24 | Cc1nc(NCc2ccccc2)c([N+](=O)[O-])c(SC#N)n1 |  |  | 50 µM and 15.1 µg/mL |  | 15.9 µM and 4.78 µg/mL | 18.8 µM and 5.64 µg/mL
25 | CN(Cc1ccccc1)c1ncnc(SC#N)c1[N+](=O)[O-] |  |  | 2.34 µM and 0.7 µg/mL |  | 18.8 µM and 5.66 µg/mL | 1.17 µM and 0.35 µg/mL
